In patent US10709692B2, “Isoxazolidine derived inhibitors of receptor interacting protein kinase 1 (RIPK1)” (Denali Therapeutics Inc., priority 2015, dated 2020):
Several values for one entry are separate records, joined by “and”; a condition that tells them apart may be missing. Equal entries are not always repeated.

Columns and labels:
[1] = target: T1, receptor interacting protein kinase 1 (GST-hRIPK1 (8-327)) (Homo sapiens, UniProt Q13546); experiment: ADP-Glo luminescence assay, RIPK1 autophosphorylation; assay type: biochemical; conditions: 1.5 μg/mL GST-hRIPK1 (8-327), 50 μM ATP, 3 hours at room temperature
T1 construct: GST-hRIPK1 (8-327) enzyme was generated by Proteros GmbH by Baculovirus expression system
T1 sequence (Q13546 8-327): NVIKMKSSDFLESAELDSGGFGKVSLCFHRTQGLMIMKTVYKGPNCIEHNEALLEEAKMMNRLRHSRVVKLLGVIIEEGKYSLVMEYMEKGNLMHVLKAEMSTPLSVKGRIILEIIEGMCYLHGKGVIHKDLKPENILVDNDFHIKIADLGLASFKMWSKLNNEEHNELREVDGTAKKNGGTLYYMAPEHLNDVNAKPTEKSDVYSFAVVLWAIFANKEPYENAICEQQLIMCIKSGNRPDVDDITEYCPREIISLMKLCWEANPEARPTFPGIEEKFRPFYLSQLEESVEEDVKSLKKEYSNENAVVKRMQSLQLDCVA
Procedure: (§1) Compound potency at receptor interacting protein kinase 1 and selectivity at receptor interacting protein kinase 2 and receptor interacting protein kinase 3 was determined in autophosphorylation mode, using an ADP-Glo luminescence assay, which measures the conversion of ATP to ADP.
(§2) GST-hRIPK1 (8-327) enzyme was generated by Proteros GmbH by Baculovirus expression system. GST-hRIPK2 (1-299) and GST-hRIPK3 (1-518) enzymes were purchased from SignalChem. Test compounds were diluted in DMSO and 0.1 μL of solution was dispensed to each well of a 384-well white solid microplates. The assay buffer was 50 mM HEPES pH 7.5, 50 mM NaCl, 30 mM MgCl2. The buffer was supplemented with 0.02% CHAPS, 0.01% of Pluronic F127, 0.1 mg/mL BSA and 1 mM DTT. Only for receptor interacting protein kinase 1 5 mM MnCl2, was included in the assay buffer on the day of the experiment. The enzymatic reaction consisted of 1.5 μg/mL GST-hRIPK1 (8-327) and 50 μM ATP for receptor interacting protein kinase 1, 0.4 μg/mL GST-hRIPK2 (1-299) and 150 μM ATP, 0.4 μg/mL GST-hRIPK3 (1-518) and 15 μM ATP. 5 μL of enzyme and 5 μL of ATP were added to the plate at twice the final assay concentration and incubated at room temperature for 3 hours. Following this reaction, 10 μL of ADP-Glo reagent (Promega) was added to each well and incubated for 40 minutes at room temperature. This stops the kinase reaction and depletes any remaining ATP. 20 μL of ADP-Glo detection reagent was then added to each well and incubated at room temperature for at least 15 minutes. The detection reagent converts ADP to ATP and introduces luciferase and luciferin to detect ATP. The luminescence is then measured with the Envision (PerkinElmer) plate reader. Test compound inhibition was expressed as percent inhibition of internal assay controls. For concentration response curves, normalized data is fit and pIC50 determined using XL-fit (IDBS) for Excel. The pIC50 were averaged to determine a mean value, for a minimum of two independent experiments.
as §1, with “Certain compounds were tested in the following. Compound” for “Compound”, “assay (Berger S. B. et al. (2015) Cell Death Discovery, 1: 15009),” for “assay,”
GST-hRIPK1 (8-327) enzyme was generated by Proteros GmbH by Baculovirus expression system.
as §2, with “Test” for “GST-hRIPK1 (8-327) enzyme was generated by Proteros GmbH by Baculovirus expression system. GST-hRIPK2 (1-299) and GST-hRIPK3 (1-518) enzymes were purchased from SignalChem. Test”, “microplate.” for “microplates.”, “comprised” for “consisted of”, “1” for “1, 0.4 μg/mL GST-hRIPK2 (1-299) and 150 μM ATP, 0.4 μg/mL GST-hRIPK3 (1-518)”, “IC50” for “pIC50”, “experiments. […]” for “experiments.”

[2] = target: T1, receptor interacting protein kinase 1 (GST-hRIPK1 (8-327)); experiment: Fluorescent Polarization Binding (FP Binding) assay; conditions: 10 nM GST-hRIPK1 (8-327), 5 nM fluorescent-labeled ligand, 30 min at RT
How it was run: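 Displacement of 5 nM fluorescent ligand from 10 nM GST-hRIPK1 (8-327), 30 min at room temperature in pH 7.5 HEPES buffer, 1% DMSO. Fluorescence polarization read (ex 531/em 595 nm); IC50 fitted from percent inhibition and averaged over at least two independent experiments.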

| IC50 [1] [nM] | IC50 [2] | melting point [°C] | Compound |
| --- | --- | --- | --- |
| < 1000 | < 1000 nM |  | CC1(C(=O)N2OCC[C@H]2c2ccccc2)COC1 [Compound 8, (3S)-2-(3-Methyloxetane-3-carbonyl)-3-phenyl-1,2-oxazolidine] |
| < 1000 | < 1000 nM |  | O=C(C1CC1)N1OCC[C@H]1c1ccccc1 [Compound 12, (3S)-2-Cyclopropanecarbonyl-3-phenyl-1,2-oxazolidine] |
| < 1000 | < 1000 nM |  | N#CC1(C(=O)N2OCC[C@H]2c2ccccc2)CC1 [Compound 16, 1-[(3S)-3-phenyl-1,2-oxazolidine-2-carbonyl]cyclopropane-1-carbonitrile] |
| < 1000 | < 1000 nM |  | CC(C)(C#N)C(=O)N1OCC[C@H]1c1ccccc1 [Compound 17, 2,2-Dimethyl-3-oxo-3-[(3S)-3-phenyl-1,2-oxazolidin-2-yl]propanenitrile] |
| < 1000 | < 1000 nM |  | O=C(c1onc2ccccc12)N1OCC[C@H]1c1ccccc1 [Compound 18, 3-[(3S)-3-phenyl-1,2-oxazolidine-2-carbonyl]-2,1-benzoxazole] |
| < 1000 | < 1000 nM |  | CC(C)(O)C(=O)N1OCC[C@H]1c1ccccc1 [Compound 19, 2-Hydroxy-2-methyl-1-[(3S)-3-phenyl-1,2-oxazolidin-2-yl]propan-1-one] |
| < 1000 | < 1000 nM |  | CC1(C(=O)N2OCC[C@H]2c2ccccc2)CC1 [Compound 20, (3S)-2-(1-Methylcyclopropanecarbonyl)-3-phenyl-1,2-oxazolidine] |
| < 1000 | < 1000 nM |  | CC(C)C(=O)N1OCC[C@H]1c1ccc(F)cc1 [Compound 64, 1-[(3S)-3-(4-Fluorophenyl)-1,2-oxazolidin-2-yl]-2-methylpropan-1-one] |
| < 1000 | < 1000 nM |  | CC1(C(=O)N2OCC[C@H]2c2ccccc2)CCOCC1 [Compound 69, (3S)-2-(4-methyloxane-4-carbonyl)-3-phenyl-1,2-oxazolidine] |
| < 1000 | < 1000 nM |  | CC(C)(C)C(=O)N1OCCC1c1ccc(F)nc1 (stereo not drawn) [Compound 70] |
| < 1000 | < 1000 nM |  | CC(C)(C)C(=O)N1OCC[C@@H]1c1ccccc1F [Compound 71] |
| < 1000 | < 1000 nM |  | CC(C)(C)C(=O)N1OCC[C@H]1c1ccccc1F [Compound 72] |
| < 1000 | < 1000 nM |  | CC1(C(=O)N2OCC[C@H]2c2ccccc2)CCC1 [Compound 77, (3S)-2-(1-Methylcyclobutane-carbonyl)-3-phenyl-1,2-oxazolidine] |
| < 1000 | < 1000 nM |  | CC(C)C(=O)N1OCC[C@H]1c1ccccc1 [Compound 78, 2-Methyl-1-[(3S)-3-phenyl-1,2-oxazolidin-2-yl]propan-1-one] |
| < 1000 | < 1000 nM |  | N#CC1(C(=O)N2OCC[C@H]2c2ccccc2)CCC1 [Compound 79, 1-[(3S)-3-Phenyl-1,2-oxazolidine-2-carbonyl]cyclobutane-1-carbonitrile] |
| < 1000 | < 1000 nM |  | COC(C)(C)C(=O)N1OCC[C@H]1c1ccccc1 [Compound 80, 2-Methoxy-2-methyl-1-[(3S)-3-phenyl-1,2-oxazolidin-2-yl]propan-1-one] |
| < 1000 | < 1000 nM |  | CC(C)(C)C(=O)N1OCCC1c1cccnc1F (stereo not drawn) [Compound 81, 1-(3-(2-fluoropyridin-3-yl)isoxazolidin-2-yl)-2,2-dimethylpropan-1-one] |
| < 1000 | < 1000 nM |  | CC(C)(C)C(=O)N1OCC[C@H]1c1ccc(C#N)cc1 [Compound 87, 4-[(3S)-2-(2,2-dimethylpropanoyl)-1,2-oxazolidin-3-yl]benzonitrile] |
| < 1000 | < 1000 nM and 16 nM |  | CC(C)(C(=O)N1OCC[C@H]1c1ccc(C#N)cc1)C(F)F [Compound 88, 4-[(3S)-2-(3,3-difluoro-2,2-dimethylpropanoyl)-1,2-oxazolidin-3-yl]benzonitrile] |
| < 1000 | < 1000 nM and 8 nM |  | CC(C)(C(=O)N1OCC[C@H]1c1ccc(F)cc1)C(F)F [Compound 101, 3,3-difluoro-1-[(3S)-3-(4-fluorophenyl)-1,2-oxazolidin-2-yl]-2,2-dimethylpropan-1-one] |
| < 1000 | < 1000 nM |  | CC(C)(C)C(=O)N1OCC[C@H]1c1cncc(C#N)c1 [Compound 108, 5-[(3S)-2-(2,2-dimethylpropanoyl)-1,2-oxazolidin-3-yl]pyridine-3-carbonitrile] |
|  | 1000 to 10000 nM | 67.3 to 75.6 | CC(C)(C(=O)N1OCC[C@H]1c1ccc(/C(N)=N/O)cc1)C(F)F [Compound 206, (Z)-4-[(3S)-2-(3,3-Difluoro-2,2-dimethylpropanoyl)-1,2-oxazolidin-3-yl]-N′-hydroxybenzene-1-carboximidamide] |
|  | < 1000 nM | 87.9 to 88.9 | CC(C)(C(=O)N1OCC[C@H]1c1ccc(-c2ncon2)cc1)C(F)F [Compound 207, 3,3-difluoro-2,2-dimethyl-1-[(3S)-3-[4-(1,2,4-oxadiazol-3-yl)phenyl]-1,2-oxazolidin-2-yl]propan-1-one] |
|  | < 1000 nM | 92.1 to 95.6 | CC(C)(C(=O)N1OCC[C@H]1c1ccc(-c2noc(C3CC3)n2)cc1)C(F)F [Compound 208, 1-[(3S)-3-[4-(5-cyclopropyl-1,2,4-oxadiazol-3-yl)phenyl]-1,2-oxazolidin-1-yl]-3,3-difluoro-2,2-dimethylpropan-1-one] |
